Laboratory results published in PMC10761396, “Evaluation of new alternative methods for the identification of estrogenic, androgenic and steroidogenic effects: a comparative in vitro/in silico study” (Archives of Toxicology, 2023).
≈ marks a conversion by molar mass, not a printed value. Entries after “also recorded” stand apart in the source; their conditions may differ. Like-named read-outs stand apart in the source and are kept apart here.

How the values were obtained:
H295R cells = assay: H295R steroidogenesis assay (oestrogen and androgen production); type: cell-based, human; conditions: for minimal effective concentration: Homo sapiens, NCI-H295R, 48 h
Protocol: The in vitro H295R Steroidogenesis Assay is based on the human adenocarcinoma cell line, NCI-H295R, in which the human steroidogenesis pathway is fully functional (OECD 2022). The effect of the test chemical on the production of 17β-estradiol and testosterone is measured using ERα CALUX and AR CALUX technology.
The test chemical was tested in two independent assays, each in triplicate.

ER [1] = assay: ToxCast ER assays and final ToxCast call; conditions: for Final "true" call (ToxCast) ER: from active ToxCast assays, cytotoxicity, ToxCast Pathway Model and CERAPP Potency Level; for ToxCast result (ER): overall call from ToxCast data (Supplementary Table 2)
From the text: (§1) A rich source of data can be found in the EPA's ToxCast database (US EPA). This contains ED data for ~ 1800 chemicals in more than 700 high-throughput assay endpoints that cover a range of high-level cell responses. The US EPA is running an Endocrine Disruption Screening Program (EDSP), with the aim of prioritising chemicals using high-throughput screening methods and computational toxicology approaches to evaluate thousands of chemicals for ED activities. The OECD framework for ED assessment (OECD [2018]) requires animal testing at higher levels, where relevant in vitro alternatives are missing e.g. for developmental, reproductive, neurological and immune effects. However, such follow-up testing is not possible for the cosmetics industry especially in the EU due to the complete animal testing ban which came into force in March 2013 (EU [2009]). Even for other industries, animal models are not suitable for assessing ED effects due to issues relating to ethics, capacity, speed and relevance (Patisaul et al. [2018]). Therefore, chemicals which cannot be evaluated using in vivo method must be assessed using alternative methods e.g. in silico and in vitro methods listed in Levels 1 and 2 of the framework described in the OECD 150 test guideline (OECD [2018]).
(§2) The performance of different in silico models for ED effects tends to be evaluated on single model for a single effect, such as ER or AR binding, agonism or antagonism (normally by the developer), or a limited number of models using multiple chemicals (Weyrich et al. [2022]). Multi-organisation collaborations have also evaluated multiple models for a specific effect e.g. ER (Mansouri et al. [2016]) and AR (Mansouri et al. [2020]) effects. Therefore, we have conducted a side-by-side comparison of multiple different in silico models covering three pathways in ED, namely ER, AR and aromatase inhibition and compared these with ToxCast-derived final calls, as well as with results from in vitro assays. The efficiency of the in silico models was evaluated as a metric for the ability of the in silico model to generate concrete predictions. […] In vivo data were available for some but not all chemicals; therefore, an evaluation of the performance of the methods was made by comparing the derived overall calls from in silico models with those from the ToxCast database. The final call for each chemical evaluated in the ToxCast assays was made by considering the active-flagged assays and the corresponding cytotoxicity levels, the ToxCast Pathway Model (Browne et al. [2015]) and the CERAPP Potency Level (Mansouri et al. [2016]) for ER effects and the ToxCast Pathway Model (Kleinstreuer et al. [2017]) for AR effects (see Online Resource 1 Supplementary Tables 2, 4 and 6 for the outcome of the ER, AR and aromatase ToxCast assays, additional literature and final calls for each chemical and target).

AR [2] = assay: ToxCast AR assays and final ToxCast call; conditions: for Final "true" call (ToxCast): AR effects, from active assays, cytotoxicity and pathway model
From the text: as §1, §2

aromatase [3] = assay: ToxCast aromatase assays (TOX21_Aromatase_Inhibition) and final ToxCast call; type: cell-based; conditions: for ToxCast result: aromatase overall ToxCast call; for Final "true" call (ToxCast) Aromatase inhibition: from ToxCast assays
From the text: as §2
Aromatase represents only one enzyme involved in steroidogenesis (the conversion of androgens to oestrogens); therefore, the aromatase assay detects effects on 17β-oestradiol production only. […] It is a cell-based assay in which MCF-7 cells are incubated with the test chemical for 24 h before measuring aromatase activities indirectly via a luciferase-based reporter endpoint which is dependent on the binding of the oestradiol–ER complex to the oestrogen response element. A decrease in luciferase activity can occur as a result of direct inhibition of aromatase (preventing the production of oestradiol) or by preventing oestradiol from binding to the ER and thus the binding to the oestrogen RE which initiates the production of luciferase (Lui et al. [2008]).

Solubility = type: physicochemical
ER [4] = system: ER; parameters: method as in US EPA ToxCast; conditions: ref US EPA ToxCast, cited from earlier work
ER [5] = system: ER; parameters: method as in Browne, et al (2015); conditions: ref Browne, et al (2015), cited from earlier work; for ToxCast Pathway Model (AUC): as agonist where given, value above 0.1 = significant interaction
ER [6] = system: ER; parameters: method as in Mansouri et al. 2016; conditions: ref Mansouri et al. 2016; cited from earlier work
AR [7] = system: AR; parameters: method as in ToxCast; conditions: ref ToxCast, cited from earlier work; for ToxCast conclusion from assays result: AR sheet; for ToxCast 1: (Active assays), number of positive assays / assays run: ToxCast AR assays
AR [8] = conditions: cited from earlier work; for ToxCast Pathway Model (AUC): AR pathway model, ref Kleinstreuer et al (2017) 10.1021/acs.chemrestox.6b00347
aromatase [9] = system: aromatase; parameters: method as in US EPA ToxCast; conditions: ref US EPA ToxCast, cited from earlier work
aromatase [10] = system: aromatase; parameters: method as in Lu et al. [2012]; conditions: recombinant and placental microsomal preparations; ref Lu et al. [2012]; cited from earlier work
MCF-7 cells = conditions: cited from earlier work
human (non-selective) ER = assay: ER radioligand ([3H]estradiol) receptor-binding assay; conditions: single-dose screening, 10 µM
Protocol: The chemicals were tested for their ability to bind to different targets. […] Chemicals were incubated at 10 µM with cells overexpressing ER or AR for 24 h at 4°C, after which, the binding of the radiolabeled ligand ([^3H]estradiol for ER and [^3H]methyltrienolone for AR) was measured by liquid scintillation counting. An increase or decrease higher than 50% were considered to represent significant effects. Four chemicals were tested in additional incubations at several concentrations up to the maximum soluble concentration for IC50 or EC50 determination for the associated target. Receptor binding was calculated as a % inhibition of the binding of a radioactively labeled ligand specific for each target.
Each test chemical was tested in a single assay in duplicate.

[11] = target: T1, human recombinant CYP19A1 (Homo sapiens, UniProt P11511); assay: Recombinant enzyme aromatase activity inhibition assay; type: biochemical; conditions: follow-up dose–response assay
T1 sequence (P11511 1-503): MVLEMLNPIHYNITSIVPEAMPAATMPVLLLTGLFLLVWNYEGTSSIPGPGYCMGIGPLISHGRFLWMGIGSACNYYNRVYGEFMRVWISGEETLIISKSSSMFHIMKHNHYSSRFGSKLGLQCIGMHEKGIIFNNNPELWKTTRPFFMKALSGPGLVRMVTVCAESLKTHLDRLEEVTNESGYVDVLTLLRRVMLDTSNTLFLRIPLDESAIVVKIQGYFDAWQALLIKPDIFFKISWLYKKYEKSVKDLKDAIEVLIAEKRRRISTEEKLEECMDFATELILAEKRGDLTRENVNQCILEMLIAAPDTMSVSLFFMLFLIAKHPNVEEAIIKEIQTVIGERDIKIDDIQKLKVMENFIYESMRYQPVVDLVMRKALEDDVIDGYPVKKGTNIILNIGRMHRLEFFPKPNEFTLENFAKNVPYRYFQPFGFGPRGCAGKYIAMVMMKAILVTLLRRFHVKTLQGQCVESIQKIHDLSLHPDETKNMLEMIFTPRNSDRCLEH
Protocol: An aromatase inhibition assay was also included in the in vitro assay panel. This enzyme – otherwise known as CYP19A1 - is responsible for converting androgens into estrogens (Blakemore and Naftolin 2016; Bulun 2014); therefore, chemicals that inhibit aromatase activity can lead to reduced estrogen production, which can affect reproductive and developmental processes (Kragie 2002; Tiboni and Ponzano 2016).
The metabolite, estradiol, was measured by time-resolved fluorescence according to the method described previously (Ji et al. 2014). Enzyme inhibition was calculated as a % inhibition of control enzyme activity.

AR [12] = system: AR; parameters: method as in Park et al. [2021]; conditions: ref Park et al. [2021]; cited from earlier work
[13] = read-out: Steroidogenesis Androgenicity LEC
[14] = read-out: Steroidogenesis Estrogenicity LEC
[15] = UPITT_HCI_U2OS_AR_TIF2_Nucleoli_Antagonist

Row | Compound | minimal effective concentration (H295R cells; [13]) [µM] | minimal effective concentration (H295R cells; [14]) [µM] | Final "true" call (ToxCast) ER (ER [1]) | ToxCast result (ER) (ER [1]) | Final "true" call (ToxCast) (AR [2]) | ToxCast result (aromatase [3]) | Final "true" call (ToxCast) Aromatase inhibition (aromatase [3]) | ToxCast 1: (Active assays), positive/total ER assays (ER [4]) | ToxCast conclusion from assays result (ER [4]) | ToxCast Pathway Model (AUC) (ER [5]) | ToxCast Pathway Model interaction (ER [5]) | CERAPP Potency Level (ER [6]) | ToxCast conclusion from assays result (AR [7]) | ToxCast 1: (Active assays), number of positive assays / assays run (AR [7]) | efficacy (assays Comments) (AR [7]; [15]) | ToxCast Pathway Model (AUC) (AR [8]) | ToxCast (Aromatase assays), positive/total (aromatase [9]) | further results
1 | CCCCOC(=O)c1ccccc1C(=O)OCc1ccccc1 [BBP, benzyl butyl phthalate] | > 10 | > 10 | Positive for agonism | ER agonist only | Inconclusive | Negative | Negative | 14/21 positive | Endocrine Disruption Potential.Significant Estrogen Receptor activity seen | 0.18 | significant interaction | Very weak antagonist | Endocrine Disruption Potential.Significant Estrogen Receptor activity seen | 2/14 positive | Boarderline: less than 50% efficacy (48.9%) | AUC = 0, then there is no significant interaction. | 0/2 positive | solubility (Solubility): ~10 µM (≈ 3.12 µg/mL); efficacy (assays Comments) (AR [7]; TOX21_AR_LUC_MDAKB2_Antagonist_0.5nM_R1881): Boarderline: less than 50% efficacy (38.4%)
2 | CC/C(=C(\c1ccccc1)c1ccc(OCCN(C)C)cc1)c1ccccc1 [Tamoxifen, reference compound] | > 3.16 | > 1 | Positive for agonism and antagonism | ER agonist and antagonist | Inconclusive | Positive | Positive | 19/21 positive | Endocrine Disruption Potential.Significant Estrogen Receptor activity seen | 0.45 | significant interaction | Moderate antagonist | Endocrine Disruption Potential.Significant Estrogen Receptor activity seen | 9/17 Positive | – | AUC = 0.042, then there is no significant interaction. | – | ToxCast 1: (assays Comments) (AR [7]; comment on all active AR assays): There is binding, but only one concentration above the baseline, (noisy data); ToxCast (Aromatase assays), assay listed as active (aromatase [9]; each listed assay name = active assay): TOX21_Aromatase_Inhibition; also recorded: TOX21_Aromatase_Inhibition_viability; aromatase inhibitory action (aromatase [10]): no appreciable inhibition
3 | C=CCc1ccc(O)c(OC)c1 [eugenol] | – | – | – | – | – | – | – | – | – | – | – | – | – | – | – | – | – | effect on MCF-7 cells (MCF-7 cells): cytotoxicity
4 | isoeugenol | – | – | Inconclusive | – | Negative | Negative | Negative | 9/19 positive | Endocrine Disruption Potential.Significant Estrogen Receptor activity seen | 0.0124 | no significant interaction | Weak agonist/ antagonist | Endocrine Disruption Potential.Significant Estrogen Receptor activity seen | 1/14 positive | Boarderline: less than 50% efficacy (48.8%) | AUC = = 0, then there is no significant interaction. | 0/2 positive | inhibition of control specific binding to the ER (human (non-selective) ER): less than -25%; aromatase inhibition outcome [11]: positive; LEC, oestrogen production (H295R cells; increase): 10 µM; ToxCast result (AR [2]; AR overall call from Supplementary Table 4): Negative; Final "true" call (ToxCast) AR (AR [2]; from ToxCast assays and ToxCast Pathway Model): Negative; ToxCast 1: (Comments), efficacy (ER [4]; borderline: less than 50% efficacy): Boarderline: less than 50% efficacy; ToxCast 1: (assays Comments) (AR [7]; [15]): Only highest concentration above the baseline; ToxCast Pathway model, interaction with the AR (AR [8]; ref Kleinstreuer et al. [2017]): insignificant; AR antagonism and impact of metabolism (AR [12]): exhibits AR antagonism which is decreased by metabolism
